This is an account of results in ChEMBL document CHEMBL1201862, “PubChem BioAssay data set” (2004).

Structures are written as SMILES. Active and inactive are the calls of the source.

A short description of assay [1]: Luminescence Cell-Based Dose Retest to Confirm Inhibitors of Cancer Stem Cells. [Related pubchem assays (depositor defined):AID2717, AID2721]. The format is functional. Particulars: Homo sapiens.
Assay [2] is described as follows: Trypanosoma cruzi growth suppression in host cells – NIH3T3 host cells, beta-gal luminescence, confirmation (AID 2044).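 Further: intracellular parasites grown in NIH/3T3 mouse fibroblasts as host cells; luminescent beta-galactosidase reporter signal from transgenic T. cruzi replicating inside host cells; inhibitors lower the luminescence signal.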 Format: functional, cell-based.
Assay [3] can be described thus: loss of viability in HepG2 cells – cell-based, CellTiter-Glo, cherry-picked, cytotoxicity control for Shn3 inhibitor project, dose response (AID 624134). The format is functional.
Assay [4] deals with Cytochrome P450 3A4 (Homo sapiens, UniProt P08684).
Assay [5] is described as follows: reduction of Shn3 3'UTR-driven luciferase in osteoblasts – cell-based, Clone20 osteoblasts, firefly luciferase, cherry-picked, dose response (AID 624132).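 Further: firefly luciferase luminescence from reporter carrying the Shn3 3'UTR in osteoblasts.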 The format is functional.
The target of assay [6] is T1, Cytochrome P450 1A2 (Homo sapiens, UniProt P05177).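 Further: PubChem cytochrome P450 panel assay, CYP1A2 panel member.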
T1 sequence (P05177 whole entry): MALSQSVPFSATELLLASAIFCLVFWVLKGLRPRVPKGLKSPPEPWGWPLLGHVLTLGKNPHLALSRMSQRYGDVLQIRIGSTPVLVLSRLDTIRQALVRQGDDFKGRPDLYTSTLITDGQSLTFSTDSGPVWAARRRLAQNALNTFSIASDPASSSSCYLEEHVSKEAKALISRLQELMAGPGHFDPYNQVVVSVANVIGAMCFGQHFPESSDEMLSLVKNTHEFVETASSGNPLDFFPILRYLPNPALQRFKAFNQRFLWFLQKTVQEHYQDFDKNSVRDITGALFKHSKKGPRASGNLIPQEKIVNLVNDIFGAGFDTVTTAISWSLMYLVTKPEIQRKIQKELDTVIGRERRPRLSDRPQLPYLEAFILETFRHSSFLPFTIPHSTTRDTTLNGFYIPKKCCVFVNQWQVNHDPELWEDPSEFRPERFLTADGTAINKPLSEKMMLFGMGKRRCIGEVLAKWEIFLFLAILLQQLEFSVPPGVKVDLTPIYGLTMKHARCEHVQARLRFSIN

Assay [7] can be described thus: non-specific 3'UTR reporter inhibition in Clone20-Shn3RL – cell-based, Renilla luciferase, cherry-picked, counter-screen for Shn3 inhibitor project, dose response (AID 624133). The format is functional.
Assay [8] can be described thus: NIH3T3 cell viability loss – ATP luminescence, mouse fibroblasts, counter-screen, dose response (AID 2010).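 Further: cells exposed to compound for about 90 hours before reading.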 The format is functional, cell-based.
Assay [9] has as its target FAD-linked sulfhydryl oxidase ALR (Homo sapiens, UniProt P55789). In words: ALR-catalysed DTT oxidation blockers – biochemical, H2O2 detection, luminescence, cherry-pick, dose response (AID 493248).
Assay [10] concerns the target Cytochrome P450 2C9 (Homo sapiens, UniProt P11712).
Assay [11] has as its target T2, Polyadenylate-binding protein 1 (Homo sapiens, UniProt P11940). In words: MLLE binding blockers, Cy5 peptide tracer – biochemical, fluorescence polarization, Cy5-PAM2 peptide, secondary, miRNA deadenylation inhibitor project, dose response (AID 602260). Particulars: read-out: IC50_Mean. Format: functional.
Assay [12] deals with T2, Polyadenylate-binding protein 1. As to the kind of experiment: MLLE domain peptide-binding blockers, IC50 – biochemical, fluorescence polarization, FITC-PAM2 peptide, dose response (AID 602259). Format: functional. Particulars: read-out: IC50_Mean.
Assay [13] is described as follows: cells. Format: functional, cell-based.
Assay [14] can be described thus: cells. The format is functional, cell-based. This is another data set of the same source.
Assay [15] addresses Cytochrome P450 2C19 (Homo sapiens, UniProt P33261). In words: Cytochrome panel assay with activity outcomes. Panel member name: p450-cyp2c19 Compounds with AC50 equal or less than 10 uM are considered active. Format: functional. Particulars: read-out: AC50.
Assay [16] is described as follows: viability of PTEN-deleted HCT116 cells – cell-based, HCT116 PTEN knockout, dose response (AID 1047).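 Further: HCT116 colon tumor cells with PTEN knocked out; cells exposed to compound for 60 hours before readout; potency for loss of cell viability measured by luminescence.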 The format is functional.
Assay [17] is described as follows: viability of HCT116 lacking mutant beta-catenin – cell-based, human colon tumor, dose response (AID 1045).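 Further: HCT116 colon tumor cells with beta catenin knocked out; cells exposed to compound for 60 hours.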 The format is functional.
Assay [18] is described as follows: cells. The format is functional.
The nature of assay [19]: viability of uninfected HEp-2 cells – cell-based, HTS, cytotoxicity control for RSV inhibitor project, dose response (AID 2410). Particulars: human respiratory syncytial virus. The format is functional.
Assay [20] addresses T3, Heat shock factor protein 1 (Mus musculus, UniProt P38532).
T3 sequence (P38532 whole entry): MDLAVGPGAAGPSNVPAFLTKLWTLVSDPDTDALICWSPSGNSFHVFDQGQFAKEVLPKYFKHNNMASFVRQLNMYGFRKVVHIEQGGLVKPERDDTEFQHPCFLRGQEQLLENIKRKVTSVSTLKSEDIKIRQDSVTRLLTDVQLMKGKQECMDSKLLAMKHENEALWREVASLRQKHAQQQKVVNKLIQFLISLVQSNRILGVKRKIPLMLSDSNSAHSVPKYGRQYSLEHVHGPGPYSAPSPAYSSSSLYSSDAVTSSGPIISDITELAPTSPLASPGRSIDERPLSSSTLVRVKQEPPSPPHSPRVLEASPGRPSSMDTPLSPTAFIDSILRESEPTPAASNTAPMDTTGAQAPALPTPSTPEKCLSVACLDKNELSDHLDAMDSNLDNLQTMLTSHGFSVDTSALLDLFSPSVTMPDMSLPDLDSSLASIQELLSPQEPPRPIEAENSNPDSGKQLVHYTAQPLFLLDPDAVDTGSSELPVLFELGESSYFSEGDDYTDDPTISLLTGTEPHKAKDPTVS
In words: decrease of HSF1-responsive luciferase luminescence – cell-based, NIH3T3, dose retest, confirmation (AID 2382).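 Further: NIH3T3 fibroblasts with HSF1-driven luciferase reporter stressed by proteasome inhibitor MG132; luminescence from HSF1-driven luciferase expression after 8 hours of MG132 stress.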 Format: functional.

Assay [21] deals with H4. In words: Luminescence Cell-Based Dose Response HTS to Identify Activators of 5'UTR Stem-Loop Driven Prion Protein mRNA Translation in H4 Neuroglioblastoma Cells. [Related pubchem assays: 1829 (Project Summary), 1814 (Primary HTS)]. Format: functional. Particulars: Homo sapiens.
The target in assay [22] is Cytochrome P450 2D6 (Homo sapiens, UniProt P10635).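 Further: CYP2D6 member of a cytochrome P450 panel assay.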
Cytochrome P450 2D6, sequence (P10635 whole entry): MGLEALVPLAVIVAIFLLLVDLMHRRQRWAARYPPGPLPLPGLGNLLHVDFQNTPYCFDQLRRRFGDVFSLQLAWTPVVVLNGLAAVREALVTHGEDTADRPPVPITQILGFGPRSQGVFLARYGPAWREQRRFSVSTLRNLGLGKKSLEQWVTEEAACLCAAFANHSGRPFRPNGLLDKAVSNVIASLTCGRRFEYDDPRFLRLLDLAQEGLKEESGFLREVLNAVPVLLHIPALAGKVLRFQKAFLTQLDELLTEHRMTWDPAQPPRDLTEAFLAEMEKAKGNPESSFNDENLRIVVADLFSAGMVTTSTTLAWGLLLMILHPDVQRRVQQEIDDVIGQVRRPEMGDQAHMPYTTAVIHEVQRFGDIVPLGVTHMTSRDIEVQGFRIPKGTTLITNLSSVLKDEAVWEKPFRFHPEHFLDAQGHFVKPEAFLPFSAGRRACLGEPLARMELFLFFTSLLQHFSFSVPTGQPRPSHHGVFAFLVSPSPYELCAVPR

FAD-linked sulfhydryl oxidase ALR, sequence (P55789 whole entry): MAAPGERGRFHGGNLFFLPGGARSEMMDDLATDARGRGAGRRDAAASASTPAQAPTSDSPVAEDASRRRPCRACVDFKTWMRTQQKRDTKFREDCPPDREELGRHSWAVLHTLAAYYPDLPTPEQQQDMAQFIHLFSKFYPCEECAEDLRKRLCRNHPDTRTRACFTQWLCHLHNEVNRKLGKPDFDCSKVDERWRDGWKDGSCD
T2 sequence (P11940 whole entry, the tested form may be a part): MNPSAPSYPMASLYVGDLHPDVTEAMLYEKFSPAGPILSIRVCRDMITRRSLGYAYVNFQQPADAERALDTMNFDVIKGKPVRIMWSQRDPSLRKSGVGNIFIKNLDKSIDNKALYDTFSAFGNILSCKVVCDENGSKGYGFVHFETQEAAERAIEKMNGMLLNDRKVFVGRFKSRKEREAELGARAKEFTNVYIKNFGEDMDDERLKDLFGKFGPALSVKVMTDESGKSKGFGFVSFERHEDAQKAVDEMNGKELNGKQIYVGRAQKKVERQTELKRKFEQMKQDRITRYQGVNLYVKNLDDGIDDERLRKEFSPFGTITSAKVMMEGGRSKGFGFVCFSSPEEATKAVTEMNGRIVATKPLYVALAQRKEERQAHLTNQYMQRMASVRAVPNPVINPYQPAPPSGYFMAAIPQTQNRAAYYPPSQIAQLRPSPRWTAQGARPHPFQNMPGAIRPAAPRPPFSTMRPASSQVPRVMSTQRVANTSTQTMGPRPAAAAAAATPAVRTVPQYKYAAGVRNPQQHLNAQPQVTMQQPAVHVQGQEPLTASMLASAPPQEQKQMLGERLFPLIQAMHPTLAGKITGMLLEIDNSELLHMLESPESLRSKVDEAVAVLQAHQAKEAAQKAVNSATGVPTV
Cytochrome P450 3A4, sequence (P08684 whole entry): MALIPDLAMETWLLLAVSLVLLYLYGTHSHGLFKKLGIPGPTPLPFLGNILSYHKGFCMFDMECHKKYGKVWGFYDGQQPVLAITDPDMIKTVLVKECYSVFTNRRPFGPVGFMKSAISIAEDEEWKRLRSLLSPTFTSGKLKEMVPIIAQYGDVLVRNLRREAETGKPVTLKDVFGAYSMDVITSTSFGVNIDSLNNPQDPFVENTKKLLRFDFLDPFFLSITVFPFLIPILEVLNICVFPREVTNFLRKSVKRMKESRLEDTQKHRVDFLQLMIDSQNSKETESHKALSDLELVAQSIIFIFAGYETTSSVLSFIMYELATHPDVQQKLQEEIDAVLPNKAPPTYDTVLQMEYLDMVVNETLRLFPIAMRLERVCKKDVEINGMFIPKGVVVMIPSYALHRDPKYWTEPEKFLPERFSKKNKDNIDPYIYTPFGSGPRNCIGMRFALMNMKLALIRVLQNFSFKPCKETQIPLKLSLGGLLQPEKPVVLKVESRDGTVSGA
Cytochrome P450 2C9, sequence (P11712 whole entry): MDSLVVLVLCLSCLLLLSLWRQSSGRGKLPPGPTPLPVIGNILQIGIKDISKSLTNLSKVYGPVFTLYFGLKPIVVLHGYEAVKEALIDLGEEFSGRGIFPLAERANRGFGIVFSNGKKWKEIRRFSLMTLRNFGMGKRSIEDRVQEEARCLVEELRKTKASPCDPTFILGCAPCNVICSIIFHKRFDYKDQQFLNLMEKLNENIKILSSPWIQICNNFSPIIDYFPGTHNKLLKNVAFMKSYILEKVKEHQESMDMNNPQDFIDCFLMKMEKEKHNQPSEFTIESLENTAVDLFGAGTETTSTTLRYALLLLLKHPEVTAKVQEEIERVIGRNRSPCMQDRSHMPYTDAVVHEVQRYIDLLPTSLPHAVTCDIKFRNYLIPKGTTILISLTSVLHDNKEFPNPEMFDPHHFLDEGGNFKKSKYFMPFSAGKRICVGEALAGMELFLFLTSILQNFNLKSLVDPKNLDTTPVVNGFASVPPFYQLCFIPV
Cytochrome P450 2C19, sequence (P33261 whole entry): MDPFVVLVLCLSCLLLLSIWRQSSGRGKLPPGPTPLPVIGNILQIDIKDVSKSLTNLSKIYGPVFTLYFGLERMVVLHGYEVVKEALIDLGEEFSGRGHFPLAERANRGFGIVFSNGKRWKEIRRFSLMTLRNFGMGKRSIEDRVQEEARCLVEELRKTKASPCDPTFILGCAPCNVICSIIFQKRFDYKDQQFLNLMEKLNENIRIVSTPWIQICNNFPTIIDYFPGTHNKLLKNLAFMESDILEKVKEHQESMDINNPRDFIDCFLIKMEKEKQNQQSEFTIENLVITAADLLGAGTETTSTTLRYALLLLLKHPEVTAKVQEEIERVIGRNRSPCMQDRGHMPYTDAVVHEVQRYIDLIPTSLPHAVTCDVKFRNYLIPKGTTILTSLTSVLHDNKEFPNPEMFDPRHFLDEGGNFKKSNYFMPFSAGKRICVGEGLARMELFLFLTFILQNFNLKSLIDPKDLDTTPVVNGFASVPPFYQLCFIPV

Turning to `CC(=O)c1ccc(N2CCC(c3cc(-c4ccc(Cl)cc4)[nH]n3)CC2)c([N+](=O)[O-])c1`, the AC50 in assay [1] is 2.39 µM (active); in assay [3], > 70 µM (inactive); in assay [4], 39.8 µM (inconclusive); in [5] it was 5 µM (active); in [6], 2.82 µM (inconclusive); in assay [7], 20 µM (active). In addition, the EC50 is 1.13 µM (active) in assay [2] and > 60 µM (inconclusive) in assay [8].

`NCCCCCc1nnc(SCc2ccc(Cl)cc2Cl)o1`: the AC50 in assay [9] is 2.63 µM (active); in assay [10], 14.1 µM (inconclusive).

`CCc1c(C(C)S(=O)(=O)c2ccccc2)nc(O)n1CC` (stereo unspecified): the IC50 in [11] and in assay [12] was > 66 µM (inactive) throughout.

In the case of `COc1ccc2oc(C(=O)OCC(=O)Nc3ccccc3OC)c(C)c2c1`, the figures for the EC50 in assay [13] and in assay [14] were > 350 µM (not active) and 40.5 µM (active), respectively. As to `Cc1cccn2c(=O)c(/C=N/Cc3ccco3)c(Nc3ccc(SC(F)F)cc3)nc12`, the AC50 in assay [15] is 4.47 µM (inconclusive). The EC50 in assay [16] was 10.7 µM (active); in [17], 14 µM (active).

Regarding `CC(C)=CCN1CCN(CCC2=C(C)CCCC2(C)C)CC1CCO` (stereo unspecified), the IC50 in assay [18] is 21.8 µM (active). As for `O=[N+]([O-])c1ccc(CN2CCN(c3ccc(F)cc3)CC2)o1`, the IC50 in assay [18] is < 0.1 µM (active). As to `CCN1C(=O)[C@@H]2[C@@H](c3ccc(SC4CCCCC4)cc3)N3CCC[C@@]3(C(=O)OC)[C@@H]2C1=O`, the IC50 in assay [11] and in [12] was > 66 µM (inactive) each time. On to `COc1ccc(S(=O)(=O)Cc2ccc(C(=O)N3CCN(c4ccc(Cl)cc4)CC3)o2)cc1`, for which the EC50 in assay [16] is 16.3 µM (active); in assay [17] it was 38.8 µM (active). In addition, the AC50 in [9] was 5.64 µM (active).

As for `CCc1nc2sc3ccccc3c(=O)c2c(=O)n1Cc1ccc(OC)cc1`, in assay [19], the CC50 was > 50 µM (active). Also, the EC50 in assay [20] is > 195 µM (not active). `O=C(O)Cn1cc(C(=S)N2CCCCC2)c2ccccc21`: the AC50 in assay [9] was 0.407 µM (active). For `COc1cccc(Nc2c(F)c(F)c(F)c(F)c2C(=O)O)c1`, in assay [9], the AC50 was 4.26 µM (active). Regarding `Cc1ccc(NC(=O)CN(c2ccc3c(c2)OCO3)S(=O)(=O)c2c(C)n[nH]c2C)cc1`, in assay [9], the AC50 was > 100 µM (inactive). Regarding `O=C(NCc1cccs1)C1CC(=O)N(C2CCCC2)C1` (stereo unspecified), the EC50 in assay [13] and in assay [14] was > 350 µM (not active) each time.

Turning to `CCCCOC(=O)c1ccc(NC(=O)C(=O)NCc2cccnc2)cc1`, the EC50 in assay [13] and in assay [14] was > 350 µM (not active) each time. As to `CC(C)N(CC(N)=O)c1ncnc2sc(-c3ccccc3)cc12`, in assay [19], the CC50 is 25.9 µM (active). Regarding `O=C(c1ccc(S(=O)(=O)c2cccc(Cl)c2)c([N+](=O)[O-])c1)N1CCN(Cc2ccccc2)CC1`, in assay [19], the CC50 was 6.34 µM (active). For `CCCOc1ccc(NC(=O)CC2C(=O)N(CC)C(=S)N2CCCN2CCN(Cc3ccccc3)CC2)cc1` (stereo unspecified), the CC50 in [19] is 14.3 µM (active). With `CN(C)c1nc(-c2cn(CCC#N)c3ccccc23)cs1`, the IC50 is > 66 µM (inactive) in assay [11] and 56.9 µM (inactive) in [12]. `Cn1cc(C(=O)N2CCCC(Nc3ccc(F)cc3)C2)c2ccccc21` (stereo unspecified): the AC50 in assay [9] is 1.5 µM (active). Regarding `N#Cc1nc(-c2cccc3ccccc23)oc1NCC1CCCO1` (stereo unspecified), the CC50 in assay [19] was 21.7 µM (active). Take `Cc1ccc2c(CC(=O)N3CCc4ccccc43)coc2c1`: the EC50 in [21] was 18.5 µM (active).

`COC(=O)[C@H](CC(C)C)NC(=O)NCCC1=CCCCC1`: in [18], the IC50 was 21.6 µM (active). For `O=C1NCCCc2c1oc1cc(Br)c(O)c(Br)c21`, the AC50 in assay [9] is 3.5 µM (active). With `COc1cccc(C2=CC(c3ccc(OC)c(OC)c3OC)n3nnnc3N2)c1` (stereo unspecified), the CC50 in assay [19] is 6.56 µM (active). Regarding `COc1cc2ncnc(NCc3cccs3)c2cc1OC`, the EC50 in assay [13] and in assay [14] was > 350 µM (not active) throughout.

Consider `Cc1ccc(-c2ccc(=O)n(CC(=O)NCc3ccco3)n2)cc1`, for which the AC50 in [4] was 25.1 µM (inconclusive); in [22], 22.4 µM (inconclusive); in [6] it was 15.8 µM (inconclusive).

`CC(C)CN(C(=O)COC(=O)c1ccc2c(c1)NC(=O)CS2)C1CCS(=O)(=O)C1` (stereo unspecified): the IC50 in assay [11] and in [12] was > 66 µM (inactive) in each case.

Take `CC1CN=C(NC(=O)c2cccc([N+](=O)[O-])c2)S1` (stereo unspecified): the IC50 in [11] and in assay [12] was > 66 µM (inactive) each time.

Take `O=C(Nc1cccc(NC(=O)c2ccc(-c3cccc(Br)c3)o2)c1)c1ccco1`: the EC50 in [2] is 3.69 µM (active); in assay [8], 14.9 µM (active). Moreover, in [19], the CC50 was 16 µM (active). For the same compound, in assay [22], the AC50 is 17.8 µM (inconclusive). Consider `CN1CCN(C(=S)c2ccc(N(C)C)cc2)CC1`, for which, in [9], the AC50 is 1.45 µM (active). For the compound `O=P(CN1CCN(c2ccccc2)CC1)(N1CCCCC1)N1CCCCC1`, in assay [9], the AC50 was 0.656 µM (active).

For `O=C(CS(=O)(=O)c1ccccc1)Nc1ccc(N2CCOCC2)cc1`, the EC50 in [13] and in [14] was > 350 µM (not active) throughout. On to `N#Cc1c2n(c(=S)n(-c3ccccc3[N+](=O)[O-])c1=O)CCCCC2`, for which the IC50 in assay [11] and in [12] was > 66 µM (inactive) each time. Take `CCOC(=O)c1cc(CC)sc1NC(=O)c1ccc([N+](=O)[O-])c(N2CCOCC2)c1`: the values for the EC50 in assay [16] and in assay [17] were 39.9 µM (active) and 34.2 µM (active), respectively.

On to `FC(F)c1nnc2ccc(Cl)nn12`, for which, in [18], the IC50 was 7.13 µM (active).

`Cc1ccc2c(c1)C(c1ccc([N+](=O)[O-])cc1)=NNC(c1ccc(Br)cc1)=N2`: in assay [19], the CC50 is 14.7 µM (active). For the compound `COc1cc2c(cc1NC(=O)CSc1nnnn1-c1ccccc1)oc1ccccc12`, the CC50 in [19] is 15.6 µM (active). Regarding `COCc1c(C(=O)N/N=C(\C)c2ccc(Cl)s2)nnn1-c1nonc1N`, the EC50 in assay [13] and in [14] was > 350 µM (not active) each time. For the compound `CN(C)c1ccc(/C=N/NC(=O)c2ccco2)cc1`, the AC50 in assay [9] was 6.78 µM (active).

Turning to `CCOC(=O)Cc1cnc(S)nc1O`, the IC50 in assay [11] and in [12] was > 66 µM (inactive) in each case.

Turning to `COc1cccc(Nc2ccc(C(=O)O)cc2N)c1`, in assay [9], the AC50 was 1.17 µM (active). Besides, the EC50 in assay [20] is given as > 195 µM (not active). Regarding `COc1cc2sc3ccc(-c4ccc5[nH]ccc5c4)cc3c(=O)c2cc1OC`, the EC50 in [21] is > 120 µM (not active).
